Results on 2 molecules are retold here after paper PMC8145938, “Triphenilphosphonium Analogs of Chloramphenicol as Dual-Acting Antimicrobial and Antiproliferating Agents” (Antibiotics, 2021).

In data set [1] the test system is Rabbit Reticulocyte Lysate. In words: inhibition of eukaryotic in vitro translation (firefly luciferase). In kind it is biochemical. Conditions: 30 µM compound. As for the experimental part: The next step was to test the new CAM-Cn-TPP compounds for their ability to inhibit the synthesis of the firefly luciferase reporter in vitro in a cell-free transcription-translation system based on an E. coli S30 extract.
The inhibition of eukaryotic translation was measured in Rabbit Reticulocyte Lysate (Promega) according to the manufacturer’s protocol. The reactions were programmed with 100 ng of Fluc mRNA and were carried out in 5 μL aliquots at 37 °C for 30 min. The activity of the in vitro synthesized luciferase was assessed using 5 μL of the substrate from the Steady-Glo Luciferase Assay System (Promega).

In data set [2] the test system is CSC-like TNBC cells (MDA-MB-231 and BT-549, sensitive and chemoresistant). Description: tumoursphere formation and viability of CSC-like cells. In kind it is cell-based. The conditions noted are these: for survival of CSCs: CSCs from parental and resistant TNBC cell lines; for spheroid formation: non-adherent conditions, 5 days. The source says: Several TPP-containing compounds have been proposed for the elimination of CSCs by the Lisanti group. In the current work, we studied the effect of CAM-TPP derivatives on CSC-like TNBC cell models.
The MDA-MB-231 (RRID: CVCL_0062) and BT-549 (RRID: CVCL_1092) cell lines were purchased from ATCC and cultured in DMEM/F12 (Gibco, Life Technologies, 31330-038) supplemented with 10% FBS, 1% Pen-Strep, 1% Sodium Pyruvate, and 1% L-glutamine. Chemoresistant cell lines were established with continuous treatment for 6 months with the anticancer therapeutic agent, cyclophosphamide (Rcyclo), as previously described. These cell lines were authenticated using short tandem repeat (STR) profiling within the last three years. To obtain CSC-like cells, a single cell suspension was prepared using enzymatic disaggregation (1× Trypsin-EDTA, Gibco, 25300062), and the cells were plated at a density of 10.000–12.000 cells per ml in a Cancer Stem Cell medium (C-28070, PromoCell, Heidelberg, Germany) in poly-2-hydroxyethyl methacrylate (Poly-HEMA, Santa Cruz Biotechnology, Dallas, TX, USA, sc-253284)-coated plates. […] The cells were […] with corresponding compounds or DMSO (control), followed by the abovementioned procedure of tumoursphere formation. The relative numbers of tumourspheres per well were counted manually. The experiments were performed independently at least 2 times, with several replicates.
(§1) The survival assay was performed essentially as described earlier. In short, cells were seeded into a 96-well plate, followed by treatment with increasing concentrations of the corresponding CAM-TPP derivatives for 3 days. 3-(4,5-dimethylthiazol-2-yl)-2,5-diphenyltetrazolium bromide (0.5 mg/mL MTT; Sigma-Aldrich) dissolved in media was added to each well. Following incubation for 2 h, the supernatant was carefully removed from the wells, and 100 µL of a DMSO:ethanol mix (1:1) was added to each well, followed by shaking for 10 min. The absorbance was measured at 570 nm in Bio Spec 1601, Shimadzu spectrometer. The OD570 of the DMSO solution in each well was considered to be proportional to the number of cells. The OD570 of the control (treatment without supplement) was considered to be 100%. The results were expressed as the means ± SEM. The data were analyzed using the GraphPad Prism 7 PRIZM computer software under the license of the Statistical Department (Vall’ d Hebron Hospital, Barcelona, Spain).

For data set [3], the system named is MDA-MB-231 and BT-549 TNBC-sensitive and chemoresistant cells. In words: cancer cell proliferation / viability assay (MTT). In kind it is cell-based. The conditions noted are these: 3 days treatment. The source says: We recently provided in vivo [67] and in vitro [68] evidence that certain bactericidal antibiotics suppress tumor growth by inducing mitochondrial dysfunction. […] These cells differ from the corresponding parental cells and display a different response to the same microenvironmental stimuli, allowing them to reduce their proliferating rate and survive chemotherapeutic treatment. Here, we tested the abovementioned CAM-TPP derivatives on chemoresistant triple negative breast cancer (TNBC) cell models, as well as on corresponding CSC-like spheroid cells. We created several relevant models based on TNBC cell lines, particularly MDA-MB-231 and BT-549, to determine their resistance to cyclophosphamide. To create CSC-like cells, parental cells were resuspended in nonadherent conditions to form tumorspheres.
The MDA-MB-231 (RRID: CVCL_0062) and BT-549 (RRID: CVCL_1092) cell lines were purchased from ATCC and cultured in DMEM/F12 (Gibco, Life Technologies, 31330-038) supplemented with 10% FBS, 1% Pen-Strep, 1% Sodium Pyruvate, and 1% L-glutamine. Chemoresistant cell lines were established with continuous treatment for 6 months with the anticancer therapeutic agent, cyclophosphamide (Rcyclo), as previously described. These cell lines were authenticated using short tandem repeat (STR) profiling within the last three years. […] The relative numbers of tumourspheres per well were counted manually. […]
The survival assay was performed essentially as described earlier. […] The absorbance was measured at 570 nm in Bio Spec 1601, Shimadzu spectrometer. […] The results were expressed as the means ± SEM. The data were analyzed using the GraphPad Prism 7 PRIZM computer software under the license of the Statistical Department (Vall’ d Hebron Hospital, Barcelona, Spain).

The test system of the next data set is B. subtilis cells. Description: membrane potential by DiS-C3-(5) fluorescence. In kind it is cell-based, Bacillus subtilis. The source says: Thus, we further examined the effect of CAM-Cn-TPP on the bacterial membrane potential of B. subtilis. In particular, the membrane potential of B. subtilis can be estimated from the fluorescence of the potential-sensitive dye, DiS-C3-(5), by measuring the changing fluorescence. The potential-dependent accumulation of the dye inside the bacterial cell causes quenching and leads to a decrease in fluorescence. Under the influence of substances that reduce the membrane potential, the dye is released and the fluorescence increases. […] Therefore, the action of CAM-Cn-TPP may have a double effect on bacterial cells and be based on the depolarization of the bacterial membrane by analogy with the mechanism of action of Cn-TPP [17].
The membrane potential of B. subtilis was estimated by measuring the fluorescence of the potential-dependent probe, DiS-C3-(5). B. subtilis from the overnight culture were seeded into a fresh LB medium, followed by growth for […], until reaching the optical density of 0.8 at 600 nm. Then, the bacteria were diluted 20-fold in a buffer containing 100 mM of KCl and 10 mM of Tris, pH 7.4. The fluorescence was measured at 670 nm (excitation at 630 nm) using a Fluorat-02-Panorama fluorimeter.

Another data set relates to normal human fibroblasts. In words: cell viability of normal cells. In kind it is cell-based. Conditions: submicromolar concentrations, preliminary results. As for the experimental part: We also compared the effects of the obtained compounds on the suppression of normal cell growth.
as §1

Consider `O=C(CCCCCCCCCC[P+](c1ccccc1)(c1ccccc1)c1ccccc1)N[C@H](CO)[C@H](O)c1ccc([N+](=O)[O-])cc1` [CAM-C10-TPP, (N-{[(1R,2R)-1,3-dihydroxy-1-(4-nitrophenyl)propan-2-yl]amino}-11-oxoundecyl)(triphenyl)phosphonium bromide], for which the “effect on eukaryotic in vitro translation” value in data set [1] is “had no effect on eukaryotic in vitro translation”. Moreover, the “survival of CSCs” value in data set [2] is “reduced the survival of CSCs formed from parental and resistant TNBC cell lines”. Also, in data set [2], the spheroid formation result is “significant decrease in spheroid formation”. In data set [3], the “effect on proliferation of TNBC cell lines” value is on record as “significantly reduced the proliferation of TNBC cell lines”. Also, the “effect on membrane potential” value in the data set with B. subtilis cells (10 µM) is “caused a rapid drop in the membrane potential to the level observed with the channel-forming antibiotic gramicidin A”; with B. subtilis cells (submicromolar concentrations) it was “caused a decrease in the membrane potential of B. subtilis on a minute time scale”. For the same molecule, the “effect on normal cell growth compared with cancer cells” value in the data set with normal human fibroblasts is reported as “less affected by submicromolar concentrations of CAM-TPP derivatives than cancer cells”.

As for `O=C(CCCCCCCCCC[P+](c1ccccc1)(c1ccccc1)c1ccccc1)NCCCC(=O)N[C@H](CO)[C@H](O)c1ccc([N+](=O)[O-])cc1` [CAM-C14-TPP, N-[(1R,2R)-1,3-dihydroxy-1-(4-nitrophenyl)propan-2-yl]-4-(triphenyl)phosphoniumundecanamidobutamide bromide], the “effect on eukaryotic in vitro translation” value in data set [1] is given as “had no effect on eukaryotic in vitro translation”. Further, in data set [2], the “survival of CSCs” value was “reduced the survival of CSCs formed from parental and resistant TNBC cell lines”; the spheroid formation entry is given as “significant decrease in spheroid formation”. Further, the “effect on proliferation of TNBC cell lines” value in data set [3] is given as “significantly reduced the proliferation of TNBC cell lines”. In addition, the “effect on membrane potential” value in the data set with B. subtilis cells (10 µM) was “caused a rapid drop in the membrane potential to the level observed with the channel-forming antibiotic gramicidin A”. Also, the “effect on membrane potential” value with B. subtilis cells (submicromolar concentrations) was “caused a decrease in the membrane potential of B. subtilis on a minute time scale”.
